Assay results as given in a melting point compilation (Tetko et al.; mined from patent text by program, amines drawn as free bases though some values may be those of a salt).

Row | Structure (SMILES) | melting point [°C]
1 | CCc1nc2cc(C(F)(F)F)c(Cl)cc2n1-c1ccc(C[C@H](C)NC(=O)NS(=O)(=O)c2ccc(C)cc2)cc1 | 138 to 141
2 | CCc1nc2ccccn2c1S(N)(=O)=S (stereo unspecified) | 169 to 171
3 | O=C1[C@H]2CCC[C@H]2N(C(=O)CBr)c2ccccc2N1CCCc1ccccc1 (relative stereo) | 130 to 132
4 | CC(=O)NC[C@H]1CN(c2ccc(C3=CCCN(C(=O)OC(C)(C)C)CC3)c(F)c2)C(=O)O1 | 164 to 165
5 | CCCc1nc2c(N)nc3cc(Cl)ccc3c2s1 | 159 to 160
6 | Cc1c(C(=O)Nc2ccc(Cl)c([N+](=O)[O-])c2)cnn1-c1ccc(C(F)(F)F)cc1 | 206 to 208
7 | COC(=O)Nc1nc2cc(-c3noc4ccccc34)ccc2[nH]1 | > 300
8 | COC1=C(OC)C(=O)C(CCCCC[C@H]2CC[C@H](O)CC2)=C(C)C1=O | 49 to 51
9 | CN(C)CCNC(=O)c1cccc(-c2ccnc(C(=O)N(O)Cc3ccccc3)c2)c1 | 65 to 70
10 | CC1C2=CCC3C(CCC4(C)C(O)CCC34)C2(C)CCC1O (stereo unspecified) | 210 to 214
11 | CC(C)(C)OC(=O)N1CCN(c2ccc(NC=O)nc2)CC1 | 178 to 180
12 | COc1ccc(NC=O)c(COC=O)c1 | 117
13 | Cc1[nH]c2ccccc2c1CCCN1CCC(O)(Cc2ccccc2)CC1 | 132 to 134
14 | CNC(=O)Cc1ccccc1[N+](=O)[O-] | 147
15 | O=C1Nc2ccccc2Sc2ncccc21 | 260 to 261
16 | CCCCCC(C)C(C)c1cc(O)c2c(c1)OC(C)(C)C1=C2CN(CC(N)=O)CC1 (stereo unspecified) | 165 to 168
17 | CCCCc1nc(Cl)c(CO)n1Cc1ccc2oc(-c3ccccc3C#N)c(OC)c2c1 | 164 to 168
18 | C=CCSc1nnc(OC)c(C)c1C | 51 to 53
19 | COc1ccc(OCc2ccccc2)cc1N | 81
20 | CCc1nc2c(cnn2CC)c(NC2CCOCC2)c1CNC(=O)c1cc(C)cc(C(=O)OC)c1 | 89 to 93
21 | O=C1N(c2cc(Cl)nc(Cl)c2)C(=O)[C@@]2(Cc3ccc(OC(F)(F)F)cc3)C[C@H](n3cccc3)CN12 | 130
22 | CS(=O)(=O)c1ccccc1C(=O)N1CCC(N2CCC(Oc3ccc(Cl)c(Cl)c3)CC2)CC1 | 141
23 | O=c1oc2ccccc2c2c1CNCC2 | 125 to 128
24 | O=C(CN1C(=O)c2ccccc2C1=O)Nc1ccccc1OC(F)(F)F | 192
25 | CC(=O)Oc1cnc(C(C)(C)C)nc1O | 164
26 | CSc1noc(-c2ccc(OCCCOc3ccccc3)cc2)c1C#N | 121 to 123

Row | Structure (SMILES) | melting point [°C]
27 | CN=Cc1ccc(-c2ccc(OC)c(Br)c2)cc1 | 115 to 117
28 | O=C(O)Cn1c(=O)n(Cc2ccc(Cl)c(Cl)c2)c(=O)c2ccccc21 | 225 to 227
29 | CC(=O)NCCc1ccc(CN2CCN(c3ccc(F)cc3)CC2)cc1 | 121 to 123
30 | O=c1c2ccccc2oc2cccn12 | 129 to 130
31 | N#Cc1ccc(-c2cncc(OC3SCC(O)C(O)C3O)c2)cc1Cl (stereo unspecified) | 202 to 204
32 | CCCCCCCCCCCCCCCC(=O)OC[C@H]1OCC(=NO)[C@@H](O)[C@@H]1O | 97 to 104
33 | COc1ccc(C(=O)Nn2c(=O)[nH]c3ccccc3c2=O)cc1 | 289
34 | CS(=O)(=O)NCCCCCC1CCSS1 (stereo unspecified) | 43 to 46
35 | O=C(NC(CCO)c1ccccc1Br)c1c(F)cccc1F (stereo unspecified) | 63 to 65
36 | CC(C)(C)NCCCOc1ccccc1Cc1cccc2[nH]ccc12 | 96
37 | O=C1CCC(c2ccccc2)(c2ccccc2)[C@@H]2CN(C(=O)Cc3c[nH]c4ccccc34)C[C@H]12 (racemic) | 250
38 | Cc1cc(C)c(C(C#N)=CO)c(C)c1 | 124 to 126
39 | CNc1ccc2cccc(OCCOc3nccnc3N3CCNCC3)c2n1 | 54 to 56.5
40 | CSc1nc(Cl)c2sccc2n1 | 115 to 118
41 | Fc1ccc2occ(CCN3CCN(c4cccc5cccnc45)CC3)c2c1 | 54
42 | CC1(C)SC(c2ccccc2C(=O)O)NC1C(=O)O (stereo unspecified) | 185 to 186
43 | C=CCOc1ccccc1[N+](=O)[O-] | 70 to 72
44 | O=C(NCCCO)c1c([N+](=O)[O-])ccc(N(CCBr)CCBr)c1[N+](=O)[O-] | 115 to 117
45 | COc1ccc(C=O)c2cccnc12 | 121 to 122
46 | Cc1ccc(C(=O)c2ccc(Cc3ccc(N)cc3)n2C)c(C)c1 | 108
47 | O=C(O)COc1cccc2c1CCc1sc(S(=O)(=O)CC(c3ccccc3)c3ccccc3)nc1-2 | 168 to 170
48 | O=S1(=O)N=CN(C2CCCCC2)c2ccc(Cl)cc21 | 209 to 211
49 | O=S(=O)(NCCc1cccnc1)c1ccc(Cl)cc1 | 143 to 145
50 | O=Cc1ccc(-c2ccc(Br)cn2)cc1 | 120 to 121
51 | CC12CCC3c4ccc(OC(=O)c5cccnc5)cc4CCC3C1CCC2OC(=O)c1cccnc1 (stereo unspecified) | 148 to 150
52 | N#Cc1ccccc1NC(=O)C(=O)N1CCC(Cc2ccc(F)cc2)CC1 | 101 to 103

Row | Structure (SMILES) | melting point [°C]
53 | COc1cc(OC)c(-c2nccs2)cc1/C=C/C(=O)c1ccc(C(=O)O)cc1 | > 260
54 | COc1ccc(OC)c2nc(Cl)c(C=O)cc12 | 177 to 178
55 | O=C(O)[C@H](Cc1ccccc1)C[C@@H](Cc1ccccc1)C(=O)N[C@@H](COCc1ccccc1)C(=O)O | 149 to 151
56 | CC(C)C(=O)NCCCCN1CCN(c2csc3cc(F)ccc23)CC1 | 130 to 131
57 | Cn1cc(CN2CCC[C@H]2CO)c2ccccc21 | 46 to 48
58 | COc1cccc2cc(C(=O)O)oc(=O)c12 | 251 to 253
59 | CCCNCc1ccc(S(=O)(=O)c2ccc(S(N)(=O)=O)s2)cc1 | 151 to 153
60 | CC(=O)CN1CCc2c(c(=O)oc3cc(C)ccc23)C1 | 128 to 129
61 | CCNn1cc(C(=O)O)c(=O)c2ccc(C)nc21 | 166 to 169
62 | CCC(=CC#N)c1ccc2c(c1)C1(CCCCC1)OC(=O)N2 | 173 to 174
63 | O=C(O)c1cc(C(F)(F)F)cc([N+](=O)[O-])c1O | 166 to 168
64 | CN1Cc2c(C(=O)OCCO)ncn2-c2ccc(F)cc2C1=O | 202 to 204
65 | CC(=O)OCC(=O)C1=CCC2C3CCC4=CC(=O)C=CC4(C)C34OC4CC12C (stereo unspecified) | 164 to 165
66 | OCCCc1ccc(OCC2CCCO2)cc1Oc1ncc(C(F)(F)F)cc1Cl (stereo unspecified) | 91.3 to 93.6
67 | Cc1cc(C)c2c(c1C)OCC2c1cccc(Br)c1 (stereo unspecified) | 73 to 74
68 | O=C1CCC(C(=O)O)c2cc(Cl)c(C3CCCCC3)cc21 (stereo unspecified) | 204 to 205
69 | COc1cc(CC(C)=O)ccc1OCC(O)CN1CCN(c2ccccc2C)CC1 (stereo unspecified) | 128
70 | CCCCCNC(=O)N(C)c1cccc(-c2ccc(/C=C(\OCC)C(=O)O)cc2)n1 | 162
71 | N#Cc1ccc(NC2CCCCC2)c([N+](=O)[O-])c1 | 109
72 | Clc1ccc2sc(=Nc3ccccc3)sc2c1 | 71 to 73
73 | O[C@@H](COc1cccc(-c2noc3ccsc23)c1)CN1CCN(c2cccc(Cl)c2)CC1 | 118 to 120
74 | CCOCCOc1cc(C(C)C)c(NC(=O)CN2CCN(CCCSc3nc4ccccc4o3)CC2)c(C(C)C)c1 | 115 to 117
75 | COc1c([N+](=O)[O-])cc(Br)c2c1C(=CC#N)CC2 | 156 to 158
76 | COc1ccc(C(=O)NCCCCCCCCCCCCNC(=O)c2ccc(OC)cc2)cc1 | 169 to 170
77 | CC(=O)COc1ccc2c(c1)C(=O)NC(C)(C)O2 | 125 to 126
78 | CCC(=O)Nc1c(N)cc(Br)cc1OCc1ccccc1 | 198 to 201

Row | Structure (SMILES) | melting point [°C]
79 | COc1ccc(/C=C/C(=O)C2C(=O)CC(c3ccc(OC)cc3)C([N+](=O)[O-])C2C=Cc2ccccc2)cc1 (stereo unspecified) | 88 to 90
80 | Cc1cnc2n1-c1sc(CCCO)cc1C(c1ccccc1Cl)=NC2 | 131 to 134
81 | COc1ccc(N(C(=O)CN2C(=O)C(Cc3cc(C)nn3Cc3ccccc3)C(=O)N(c3ccccc3)c3ccccc32)C(C)C)cc1 (stereo unspecified) | 117 to 120
82 | COc1ccc(P(c2cc(C)cc(C(C)(C)C)c2O)c2cc(C)cc(C(C)(C)C)c2O)cc1 | 122 to 124
83 | O=C(NC1CCCC1)c1ccc(-c2ccc3nnn(Cc4ccc5ncccc5c4)c3n2)cc1F | 166 to 168
84 | C/C(=C\c1ccc(OC(C)C)cc1Oc1ncc(C(F)(F)F)cc1Cl)C(=O)NS(=O)(=O)NCCOC(C)C | 138
85 | N#CCCCCCNC(N)=S | 69 to 71
86 | CCCCN(CCCC)CCCOc1ccc(-c2cn3cccc(C)c3n2)cc1C | 63 to 66
87 | CC(C)(c1ccc(C(O)(C(F)(F)F)C(F)(F)F)cc1)S(=O)(=O)c1ccccc1 | 185
88 | COc1cc(C=CC(=O)OC2C=C(C)C(=O)CC(C)(C)C2O)ccc1O (stereo unspecified) | 142
89 | CCNC(=O)Cn1nc(Nc2ccc3c(c2)OC(F)(F)O3)nc1-c1cc(C)nc(C)c1 | 242
90 | CCC(=O)NCC(C)(C)c1ccc(C(=O)Nc2cn3cc(Cl)ccc3n2)cc1 | 225 to 227
91 | O=C(O)c1ccc(C(=O)/C=C/c2ccc(N3CCCC3)c(-c3cccs3)c2)cc1 | 212 to 214
92 | CCOC(=O)c1nn(-c2ccc(OC)cc2)c2c1CCC2 | 108 to 109
93 | COCCCn1nnnc1-c1cc(-c2cccc(C(=O)O)c2)c(OCc2ccccc2)cc1OCc1ccccc1 | 59 to 63
94 | COc1ccccc1-c1ccc(C(=O)N2Cc3ccc(C(=O)NCc4cccnc4)n3Cc3ccccc32)cc1C | 119 to 124
95 | O=C(O)C(Cc1ccc(OCCN2c3ccccc3Oc3ccccc32)cc1)Oc1ccccc1 (stereo unspecified) | 119 to 120
96 | Oc1ccc(CNCc2cccc(C(F)(F)F)c2)c2cccnc12 | 127 to 129
97 | Cc1ccc(S(=O)(=O)C(CCCCCc2cccc(C(F)(F)F)c2)C(=O)O)cc1 (stereo unspecified) | 62
98 | CCCCc1nc2cnc3cc(C)ccc3c2o1 | 52 to 55
99 | CNN(NC)C(=O)Sc1cccnc1C(=O)OC | 56 to 58
100 | N=c1sc2cc(OC(F)(F)F)ccc2n1CCS | 110
101 | Cn1cc(C(=O)c2ccncc2)cc1C(=O)c1ccccc1 | 127 to 129
